Measurements as given in US20230357239A1, “PYRIDO[2,3-D]PYRIMIDIN-4-AMINES AS SOS1 INHIBITORS” (Bayer Aktiengesellschaft, priority 2020, published 2023).

Target: human SOS1 (SOS1) with human K-RasG12C (Homo sapiens (Human), UniProt Q07889)
Assay: hK-RasG12C interaction assay with hSOS1 (HTRF)
Assay type: binding
Settings: GST-hK-RasG12C and His-hSOS1, 60 min incubation at 20° C, mean, read-out: K-RasG12C - SOS interaction assay IC50 - [mol/l] (mean)
Protocol: Biochemical Assay: hK-RasG12C Interaction Assay with hSOS1
This assay quantifies the equilibrium interaction of human SOS1 (SOS1) with human K-Ras^G12C (K-RasG12C). Detection of the interaction is achieved by measuring homogenous time-resolved fluorescence resonance energy transfer (HTRF) from antiGST-Europium (FRET donor) bound to GST-K-RasG12C to anti-6His-XL665 bound to His-tagged hSOS1 (FRET-acceptor).
The assay buffer containes 5 mM HEPES pH 7.4 (Applichem), 150 mM NaCl (Sigma), 10 mM EDTA (Promega), 1 mM DTT (Thermofisher), 0.05% BSA Fraction V, pH 7.0, (ICN Biomedicals), 0.0025% (v/v) Igepal (Sigma) and 100 mM KF (FLUKA).
Concentrations of protein batches used are optimized to be within the linear range of the HTRF signal. A Ras working solution is prepared in assay buffer containing typically 10 nM GST-hK-RasG12C and 2 nM antiGST-Eu(K) (Cisbio, France). A SOS1 working solution is prepared in assay buffer containing typically 20 nM His-hSOS1 and 10 nM anti-6His-XL665 (Cisbio, France). An inhibitor control solution is prepared in assay buffer containing 10 nM anti-6His-XL665 without SOS1.
Fifty nl of a 100-fold concentrated solution of the test compound in DMSO are transferred into a black microtiter test plate (384 or 1536, Greiner Bio-One, Germany).
For this, either a Hummingbird liquid handler (Digilab, MA, USA) or an Echo acoustic system (Labcyte, CA, USA) is used.
All steps of the assay are performed at 20° C. A volume of 2.5 μl of the Ras working solution is added to all wells of the test plate using a Multidrop dispenser (Thermo Labsystems). After 2 min preincubation, 2.5 μl of the SOS1 working solution are added to all wells except for those wells at the side of the test plate that are subsequently filled with 2.5 μl of the inhibitor control solution. After 60 min incubation the fluorescence is measured with a Pherastar (BMG, Germany) using the HTRF module (excitation 337 nm, emission 1: 620 nm, emission 2: 665 nm).
The ratiometric data (emission 2 divided by emission 1) are normalized using the controls (DMSO=0% inhibition, inhibition control wells with inhibitor control solution=100% inhibition). […] IC50 values are calculated by 4-Parameter fitting using a commercial software package (Genedata Screener, Switzerland).

Chain of human SOS1 (SOS1) with human K-RasG12C (Q07889 564-1049): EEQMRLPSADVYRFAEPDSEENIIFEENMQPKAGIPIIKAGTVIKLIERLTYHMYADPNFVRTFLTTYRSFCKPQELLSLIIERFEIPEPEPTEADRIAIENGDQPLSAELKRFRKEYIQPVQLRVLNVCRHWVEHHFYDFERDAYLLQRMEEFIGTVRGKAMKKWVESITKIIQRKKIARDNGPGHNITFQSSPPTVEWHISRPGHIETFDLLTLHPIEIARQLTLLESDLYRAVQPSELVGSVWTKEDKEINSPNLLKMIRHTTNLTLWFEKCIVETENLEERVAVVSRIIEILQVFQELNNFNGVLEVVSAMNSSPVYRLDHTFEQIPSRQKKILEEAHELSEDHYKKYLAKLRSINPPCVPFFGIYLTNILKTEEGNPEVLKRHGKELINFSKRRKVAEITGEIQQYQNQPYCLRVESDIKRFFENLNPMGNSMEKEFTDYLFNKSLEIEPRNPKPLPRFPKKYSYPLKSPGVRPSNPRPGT

SMILES	IC50 [nM]
CC(=O)N1CC=C(c2cnc3nc(C)nc(N[C@H](C)c4cccc(C(F)F)c4F)c3c2)CC1 [Example 43, 1-{4-[4-({(1R)-1-[3-(difluoromethyl)-2-fluorophenyl]ethyl}amino)-2-methylpyrido[2,3-d]pyrimidin-6-yl]-3,6-dihydropyridin-1(2H)-yl}ethan-1-one]	5.2
Cc1nc(N[C@H](C)c2cccc(C(F)(F)C(C)(C)O)c2F)c2cc(N3CCN(C)CC3)cnc2n1 [Example 52, 1,1-difluoro-1-{2-fluoro-3-[(1R)-1-{[2-methyl-6-(4-methylpiperazin-1-yl)pyrido[2,3-d]pyrimidin-4-yl]amino}ethyl]phenyl}-2-methylpropan-2-ol]	4.48
Cc1nc(N[C@H](C)c2cccc(C(F)(F)F)c2C)c2cc(N3CC4(CN(C(=O)OC(C)(C)C)C4)C3)cnc2n1 [Example 7, tert-butyl 6-[2-methyl-4-({(1R)-1-[2-methyl-3-(trifluoromethyl)phenyl]ethyl}amino)pyrido[2,3-d]pyrimidin-6-yl]-2,6-diazaspiro[3.3]heptane-2-carboxylate]	180
Cc1nc(N[C@H](C)c2cccc(C(F)(F)C(C)(C)O)c2F)c2cc(N3CCCS3(=O)=O)c(C)nc2n1 [Example 59, 2-[4-({(1R)-1-[3-(1,1-difluoro-2-hydroxy-2-methylpropyl)-2-fluorophenyl]ethyl}amino)-2,7-dimethylpyrido[2,3-d]pyrimidin-6-yl]-1 lambda^6,2-thiazolidine-1,1-dione]	7.23
CC(=O)N1CC2(C1)CN(c1cc3c(N[C@H](C)c4cccc(C(F)(F)C(C)(C)O)c4F)nc(C)nc3nc1C)C2 [Example 60, 1-{6-[4-({(1R)-1-[3-(1,1-difluoro-2-hydroxy-2-methylpropyl)-2-fluorophenyl]ethyl}amino)-2,7-dimethylpyrido[2,3-d]pyrimidin-6-yl]-2,6-diazaspiro[3.3]heptan-2-yl}ethan-1-one]	3410
Cc1nc(N[C@H](C)c2cccc(C(F)(F)F)c2C)c2cc(-c3cncnc3)cnc2n1 [Example 45, 2-methyl-N-{(1R)-1-[2-methyl-3-(trifluoromethyl)phenyl]ethyl}-6-(pyrimidin-5-yl)pyrido[2,3-d]pyrimidin-4-amine]	21.1
CC(=O)N1CC2(C1)CN(c1cnc3nc(C)nc(N[C@H](C)c4cccc(C(F)(F)F)c4C)c3c1)C2 [Example 8, 1-{6-[2-methyl-4-({(1R)-1-[2-methyl-3-(trifluoromethyl)phenyl]ethyl}amino)pyrido[2,3-d]pyrimidin-6-yl]-2,6-diazaspiro[3.3]heptan-2-yl}ethan-1-one]	15.7
CC(=O)N1CCN(S(=O)(=O)c2cnc3nc(C)nc(N[C@H](C)c4cccc(C(F)(F)F)c4C)c3c2)CC1 [Example 17, 1-{4-[2-methyl-4-({(1R)-1-[2-methyl-3-(trifluoromethyl)phenyl]ethyl}amino)pyrido[2,3-d]pyrimidine-6-sulfonyl]piperazin-1-yl}ethan-1-one]	3.56
CC(=O)N1CCN(c2cc3c(N[C@H](C)c4cccc(C(F)(F)F)c4C)nc(C)nc3nc2C)CC1 [Example 19, 1-{4-[2,7-dimethyl-4-({(1R)-1-[2-methyl-3-(trifluoromethyl)phenyl]ethyl}amino)pyrido[2,3-d]pyrimidin-6-yl]piperazin-1-yl}ethan-1-one]	8.25
CC(=O)N1CC2(C1)CN(c1cc3c(N[C@H](C)c4cccc(C(F)(F)F)c4C)nc(C)nc3nc1C)C2 [Example 63, 1-{6-[2,7-dimethyl-4-({(1R)-1-[2-methyl-3-(trifluoromethyl)phenyl]ethyl}amino)pyrido[2,3-d]pyrimidin-6-yl]-2,6-diazaspiro[3.3]heptan-2-yl}ethan-1-one]	8.66
CC(=O)N1C2CC1CN(c1cnc3nc(C)nc(N[C@H](C)c4cccc(C(F)(F)C(C)(C)O)c4F)c3c1)C2 [Example 49, 1-{3-[4-({(1R)-1-[3-(1,1-difluoro-2-hydroxy-2-methylpropyl)-2-fluorophenyl]ethyl}amino)-2-methylpyrido[2,3-d]pyrimidin-6-yl]-3,6-diazabicyclo[3.1.1]heptan-6-yl}ethan-1-one]	3.31
CC(=O)N1CC2(C1)CN(c1cc3c(N[C@H](C)c4cccc(C(F)(F)CO)c4F)nc(C)nc3nc1C(F)(F)F)C2 [Example 24, 1-{6-[4-({(1R)-1-[3-(1,1-difluoro-2-hydroxyethyl)-2-fluorophenyl]ethyl}amino)-2-methyl-7-(trifluoromethyl)pyrido[2,3-d]pyrimidin-6-yl]-2,6-diazaspiro[3.3]heptan-2-yl}ethan-1-one]	2.8
COc1cc2c(N[C@H](C)c3cccc(C(F)(F)F)c3C)nc(C)nc2nc1C [Example 38, 6-methoxy-2,7-dimethyl-N-{(1R)-1-[2-methyl-3-(trifluoromethyl)phenyl]ethyl}pyrido[2,3-d]pyrimidin-4-amine]	46.3

Continued by falling IC50, values first:

IC50 [nM]	SMILES
2640	COc1nc2nc(C)nc(N[C@H](C)c3cccc(C(F)(F)F)c3C)c2cc1N1CCCS1(=O)=O [Example 23, 2-[7-methoxy-2-methyl-4-({(1R)-1-[2-methyl-3-(trifluoromethyl)phenyl]ethyl}amino)pyrido[2,3-d]pyrimidin-6-yl]-1 lambda^6,2-thiazolidine-1,1-dione]
34	CC(=O)N[C@@H]1CCN(c2cnc3ncnc(N[C@H](C)c4cccc(C(F)(F)F)c4)c3c2)C1 [Example 2, N-{(3R)-1-[4-({(1R)-1-[3-(trifluoromethyl)phenyl]ethyl}amino)pyrido[2,3-d]pyrimidin-6-yl]pyrrolidin-3-yl}acetamide]
27.9	Cc1nc(N[C@H](C)c2cccc(C(F)(F)F)c2C)c2cc(N(C)S(C)(=O)=O)cnc2n1 [Example 33, N-methyl-N-[2-methyl-4-({(1R)-1-[2-methyl-3-(trifluoromethyl)phenyl]ethyl}amino)pyrido[2,3-d]pyrimidin-6-yl]methanesulfonamide]
17.6	CC(=O)N[C@@H]1CCN(c2cnc3ncnc(N[C@H](C)c4cccc(C(F)(F)F)c4C)c3c2)C1 [Example 11, N-{(3R)-1-[4-({(1R)-1-[2-methyl-3-(trifluoromethyl)phenyl]ethyl}amino)pyrido[2,3-d]pyrimidin-6-yl]pyrrolidin-3-yl}acetamide]
11.9	CC(=O)N1CCC(c2cnc3nc(C)nc(N[C@H](C)c4cccc(C(F)(F)F)c4C)c3c2)C1 (mixture of isomers) [Example 31, 1-{(3RS)-3-[2-methyl-4-({(1R)-1-[2-methyl-3-(trifluoromethyl)phenyl]ethyl}amino)pyrido[2,3-d]pyrimidin-6-yl]pyrrolidin-1-yl}ethan-1-one]
6.23	CC(=O)N1CCN(c2cc3c(N[C@H](C)c4cccc(C(F)(F)C(C)(C)O)c4F)nc(C)nc3nc2C)CC1 [Example 67, 1-{4-[4-({(1R)-1-[3-(1,1-difluoro-2-hydroxy-2-methylpropyl)-2-fluorophenyl]ethyl}amino)-2,7-dimethylpyrido[2,3-d]pyrimidin-6-yl]piperazin-1-yl}ethan-1-one]
2.93	CC(=O)N1C[C@@H]2C[C@H]1CN2c1cnc2nc(C)nc(N[C@H](C)c3cccc(C(F)(F)C(C)(C)O)c3F)c2c1 [Example 50, 1-{(1 S,4S)-5-[4-({(1R)-1-[3-(1,1-difluoro-2-hydroxy-2-methylpropyl)-2-fluorophenyl]ethyl}amino)-2-methylpyrido[2,3-d]pyrimidin-6-yl]-2,5-diazabicyclo[2.2.1]heptan-2-yl}ethan-1-one]
